Like-named read-outs stand apart in the source and are kept apart here. Peptide text beside a SMILES is read from it.
Legend:
[1] = target: T1, bradykinin receptor of the B2 class (rabbit jugular vein) (Oryctolagus cuniculus, UniProt Q28642); assay: Rabbit jugular vein (RJV) in vitro, antagonism of bradykinin; conditions: for RJV % REC: recovery after wash
T1 construct: from tissue; host or cells: rabbit jugular vein
T1 sequence (Q28642 1-367): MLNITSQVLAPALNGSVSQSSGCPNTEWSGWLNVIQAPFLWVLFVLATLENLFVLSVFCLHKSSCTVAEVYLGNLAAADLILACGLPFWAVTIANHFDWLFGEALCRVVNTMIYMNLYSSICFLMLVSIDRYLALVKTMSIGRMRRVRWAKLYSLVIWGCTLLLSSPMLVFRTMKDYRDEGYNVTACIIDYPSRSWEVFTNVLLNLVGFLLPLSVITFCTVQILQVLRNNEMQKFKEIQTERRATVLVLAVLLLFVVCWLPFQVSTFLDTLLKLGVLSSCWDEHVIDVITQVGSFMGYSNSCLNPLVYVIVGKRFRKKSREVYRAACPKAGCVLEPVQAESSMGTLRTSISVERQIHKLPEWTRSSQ
Description: Thus in vitro studies were performed on standard assay systems, namely, guinea-pig ileum (GPI), rat uterus (RU) and rabbit jugular vein (RJV). […] The potency of each compound was assessed as a pA2 value according to the method of Arunlakshana & Schild, Br. J. Pharmacol. Chemother., 14:48-58 (1959). The PA2 can be defined as the negative logarithm of the molar concentration of the antagonist in the presence of which the potency of the agonist is reduced two-fold, i.e. twice the amount of agonist is required to produce a given response in the presence of, than in the absence of, the antagonist. A high potency of antagonism is indicated by a high PA2 value, i.e., a low concentration of antagonist is effective.
The percentage recovery (% Rec) was also determined for compounds with respect to each assay. Percentage recovery is a measure of the duration of action, the lower the percentage recovery value, the greater the duration of action of the compound.

[2] = target: T2, bradykinin receptor of the B2 class (rat uterus) (Rattus norvegicus, UniProt P25023); assay: Rat uterus (RU) in vitro, antagonism of bradykinin; conditions: for RU % REC: recovery after wash
T2 construct: concentration effect curves to bradykinin (BK) on rat uterus in vitro; from tissue; host or cells: rat uterus
T2 sequence (P25023 1-396): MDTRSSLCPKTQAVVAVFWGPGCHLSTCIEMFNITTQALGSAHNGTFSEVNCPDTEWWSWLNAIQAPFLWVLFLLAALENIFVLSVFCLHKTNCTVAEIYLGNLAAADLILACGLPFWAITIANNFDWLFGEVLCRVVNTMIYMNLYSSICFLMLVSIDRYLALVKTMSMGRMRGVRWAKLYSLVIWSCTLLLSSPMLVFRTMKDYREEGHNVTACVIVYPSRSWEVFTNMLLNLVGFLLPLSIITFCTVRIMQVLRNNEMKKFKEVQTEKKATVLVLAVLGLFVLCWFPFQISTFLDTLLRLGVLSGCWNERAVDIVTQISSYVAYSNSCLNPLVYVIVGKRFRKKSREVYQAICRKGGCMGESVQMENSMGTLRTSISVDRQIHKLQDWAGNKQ
In short: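 Isolated rat uterus; bradykinin antagonism expressed as pA2, the negative log molar antagonist concentration that halves agonist potency. After the highest antagonist concentration, tissues were washed extensively and percent recovery was recorded.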

[3] = target: T3, bradykinin receptor of the B2 class (guinea-pig ileum) (Cavia porcellus, UniProt O70526)
T3 sequence (O70526 1-372): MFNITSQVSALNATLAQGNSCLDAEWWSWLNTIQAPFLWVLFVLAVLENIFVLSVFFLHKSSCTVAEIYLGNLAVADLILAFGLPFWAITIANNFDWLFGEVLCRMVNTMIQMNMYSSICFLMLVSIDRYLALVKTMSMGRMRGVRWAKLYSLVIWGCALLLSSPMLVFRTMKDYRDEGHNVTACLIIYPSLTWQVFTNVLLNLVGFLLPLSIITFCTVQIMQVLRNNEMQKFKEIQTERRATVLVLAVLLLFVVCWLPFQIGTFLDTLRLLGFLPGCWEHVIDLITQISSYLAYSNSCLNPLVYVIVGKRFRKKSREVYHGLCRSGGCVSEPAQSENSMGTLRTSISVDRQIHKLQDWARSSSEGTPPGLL

[4] = target: T3, bradykinin receptor of the B2 class (guinea-pig ileum); conditions: for GPI % REC: recovery after wash, lower = longer duration
[5] = tested on: bradykinin-induced vascular permeability; assay: Rabbit skin vascular permeability (Evans Blue, intradermal bradykinin); type: in vivo
Description: In these experiments, two protocols were used. The first protocol used the classical assay in which bradykinin was injected intradermally either alone or in combination with the compound under investigation following intravenous administration of Evans Blue dye. Thirty minutes after intradermal injection of bradykinin with and without the compound, the animal was killed, its skin removed and the area of "blueing" (i.e., vascular permeability or edema) measured.
The second protocol involved pre-injecting the test compound either 15 or 30 minutes before injecting bradykinin in the same site. The results are shown in FIGS. 2B and 2C, respectively.

[6] = tested on: bradykinin-induced hypotension; assay: Bradykinin-induced hypotension in the anesthetized rat; type: in vivo; conditions: intravenous infusion 25 μg kg^-1 min^-1; bradykinin 4×10^-9 moles; FIG. 3
[7] = Table A, read-out: RJV pA2 (converted)

Structure (SMILES): CC(C)C[C@H](NC(=O)[C@@H](Cc1ccccc1)NC(=O)[C@H](CO)NC(=O)[C@H](Cc1ccccc1)NC(=O)CNC(=O)[C@@H]1C[C@@H](O)CN1C(=O)[C@@H]1CCCN1C(=O)[C@H](CCCNC(=N)N)NC(=O)[C@H](N)CCCNC(=N)N)C(=O)N[C@@H](CCCNC(=N)N)C(=O)O [CP-0088, dARG^0 -Arg^1 -Pro^2 -Hyp^3 -Gly^4 -Phe^5 -Ser^6 -(d)Phe^7 -Leu^8 -Arg^9, reference compound] (HELM PEPTIDE1{[dR].R.P.[Hyp].G.F.S.[dF].L.R}$$$$V2.0)
- Kb [1, 7]: 3.16 nM
- RJV % REC ([1]; Table A): 90%
- Kb ([2]; Table A, read-out: RU pA2 (converted)): 39.8 nM
- RU % REC ([2]; Table A): 100%
- % REC MONOMER ([2]; Table C, rat uterus): 100%
- pA2 MONOMER ([2]; Table C, rat uterus, P.A. = Partial Agonist): 7.4
- RAT UTERUS pA2 ([2]; Table F): 7.4
- % RECOVERY ([2]; Table F, rat uterus): 100%
- Kb [3]: 251 nM
- GPI % REC ([4]; Table A): 100%

Structure (SMILES): CC(C)C[C@H](NC(=O)[C@@H](Cc1ccccc1)NC(=O)[C@H](CS)NC(=O)[C@H](Cc1ccccc1)NC(=O)CNC(=O)[C@@H]1C[C@@H](O)CN1C(=O)[C@@H]1CCCN1C(=O)[C@H](CCCNC(=N)N)NC(=O)[C@H](N)CCCNC(=N)N)C(=O)N[C@@H](CCCNC(=N)N)C(=O)O [CP-0126] (HELM PEPTIDE1{[dR].R.P.[Hyp].G.F.C.[dF].L.R}$$$$V2.0)
- Inhibition of bradykinin-induced vascular permeability, co-injected ([5]; intradermal, injected in combination with bradykinin, FIG. 2A): more potent than CP-0127
- Inhibition of bradykinin-induced vascular permeability, pre-injected ([5]; pre-injected 15 or 30 minutes before bradykinin in the same site, FIGS. 2B/2C): significantly less effective
- Kb [1]: 1.58 nM
- RJV % REC ([1]; Table A): 60%
- Inhibition of hypotensive response to bradykinin [6]: almost totally ineffective
- Recovery of bradykinin concentration effect curve after washing ([2]; rat uterus, after highest antagonist concentration, FIGS. 1A/1B): almost returns to that seen in the control
- Kb [3]: 501 nM
- Kb ([3]; GPI pA2, Table A): 398 nM
- GPI pA2 [4]: ≈ 6.3

Structure (SMILES): CC(C)C[C@H](NC(=O)[C@@H](Cc1ccccc1)NC(=O)[C@H](CSC1CC(=O)N(CCCCCCN2C(=O)CC(SC[C@H](NC(=O)[C@H](Cc3ccccc3)NC(=O)CNC(=O)[C@@H]3C[C@@H](O)CN3C(=O)[C@@H]3CCCN3C(=O)[C@H](CCCNC(=N)N)NC(=O)[C@H](N)CCCNC(=N)N)C(=O)N[C@H](Cc3ccccc3)C(=O)N[C@@H](CC(C)C)C(=O)N[C@@H](CCCNC(=N)N)C(=O)O)C2=O)C1=O)NC(=O)[C@H](Cc1ccccc1)NC(=O)CNC(=O)[C@@H]1C[C@@H](O)CN1C(=O)[C@@H]1CCCN1C(=O)[C@H](CCCNC(=N)N)NC(=O)[C@H](N)CCCNC(=N)N)C(=O)N[C@@H](CCCNC(=N)N)C(=O)O (some centres unmarked) [CP-0127] (HELM PEPTIDE1{[dR].R.P.[Hyp].G.F.C.[dF].L.R}|PEPTIDE2{[dR].R.P.[Hyp].G.F.C.[dF].L.R}|CHEM1{[O=C1CC([*:1])C(=O)N1CCCCCCN1C(=O)CC([*:2])C1=O]}$PEPTIDE1,CHEM1,7:R3-1:R1|PEPTIDE2,CHEM1,7:R3-1:R2$$$V2.0)
- Kb [1, 7]: 0.0316 nM
- RJV % REC ([1]; Table A): 10%
- RU % REC ([2]; Table A): 50%
- % REC DIMER ([2]; Table C, rat uterus): 50%
- pA2 DIMER ([2]; Table C, rat uterus): 8.8
- % REC (40 MIN) ([2]; Table D, 40 min): 50%
- pA2 (UTERUS) ([2]; Table D, effect of linker length): 8.8
- RAT UTERUS % RECOVERED ([2]; Table E): 50%
- RAT UTERUS pA2 ([2]; Table E): 8.8
- % RECOVERY ([2]; Table F, rat uterus): 50%
- Kb ([3]; pA2 GUINEA PIG ILEUM, Table B, Cys position scan, monomers and BMH dimers): ~20 nM
- GPI pA2 ([4]; Table A): 7.7
- GPI % REC ([4]; Table A): 100%
